Measured values published in ChEMBL document CHEMBL4819070, “Synthesis and biological evaluation of 2-(4-alkoxy-3-cyano)phenylpyrimidine derivatives with 4-amino or 4-hydroxy as a pharmacophore element binding with xanthine oxidase active site” (Bioorg Med Chem, 2021).
The source made the active and inactive calls. The rule behind the calls is not given here.

Tests used:
[1] = molecular target: T1, Xanthine dehydrogenase/oxidase (Bos taurus, UniProt P80457); assay: Inhibition of bovine milk xanthine oxidase assessed as reduction in uric acid formation using xanthine as substrate preincubated for 15 mins followed by substrate addition measured for every 30 sec by spectrophotometric analysis
[2] = molecular target: T1, Xanthine dehydrogenase/oxidase; assay: Inhibition of bovine milk xanthine oxidase assessed as reduction in uric acid formation at 10 uM using xanthine as substrate preincubated for 15 mins followed by substrate addition measured for every 30 sec by spectrophotometric analysis relative to control; conditions: cattle, 0.5 min
Rattus norvegicus [3] = assay: Hypouricemic activity in Sprague-Dawley rat model of Potassium oxonate-induced acute hyperuricemia assessed as decrease in serum uric acid at 30 to 90 mg/kg, IG administered after potassium oxonate treatment and measured at 1 hr; format: functional, organism-based; conditions: dose 30-90 mg/kg
Rattus norvegicus [4] = assay: Hypouricemic activity in Sprague-Dawley rat model of Potassium oxonate-induced acute hyperuricemia assessed as decrease in serum uric acid at 10 mg/kg, IG administered after potassium oxonate treatment and measured upto 8 hrs; format: functional, organism-based; conditions: time hrs <=8
[5] = molecular target: T1, Xanthine dehydrogenase/oxidase; assay: Inhibition of bovine milk xanthine oxidase assessed as increase in Km at 0.01 to 0.06 uM by Lineweaver-Burk plot analysis; conditions: cattle, dose 0.01-0.06 µM
[6] = molecular target: T1, Xanthine dehydrogenase/oxidase; assay: Mixed type inhibition of bovine milk xanthine oxidase assessed as inhibitory constant using xanthine as substrate preincubated for 15 mins followed by substrate addition measured for every 30 sec by spectrophotometric analysis
Rattus norvegicus [7] = assay: Hypouricemic activity in Sprague-Dawley rat model of Potassium oxonate-induced acute hyperuricemia assessed as decrease in serum uric acid AUC (1 to 8 hrs) at 30 to 90 mg/kg, IG administered after potassium oxonate treatment and measured at 1 hr; format: functional, organism-based; conditions: dose 30-90 mg/kg
[8] = molecular target: T1, Xanthine dehydrogenase/oxidase; assay: Inhibition of bovine milk xanthine oxidase assessed as decrease in Vmax at 0.01 to 0.06 uM by Lineweaver-Burk plot analysis; conditions: cattle, dose 0.01-0.06 µM

T1 sequence (P80457 whole entry): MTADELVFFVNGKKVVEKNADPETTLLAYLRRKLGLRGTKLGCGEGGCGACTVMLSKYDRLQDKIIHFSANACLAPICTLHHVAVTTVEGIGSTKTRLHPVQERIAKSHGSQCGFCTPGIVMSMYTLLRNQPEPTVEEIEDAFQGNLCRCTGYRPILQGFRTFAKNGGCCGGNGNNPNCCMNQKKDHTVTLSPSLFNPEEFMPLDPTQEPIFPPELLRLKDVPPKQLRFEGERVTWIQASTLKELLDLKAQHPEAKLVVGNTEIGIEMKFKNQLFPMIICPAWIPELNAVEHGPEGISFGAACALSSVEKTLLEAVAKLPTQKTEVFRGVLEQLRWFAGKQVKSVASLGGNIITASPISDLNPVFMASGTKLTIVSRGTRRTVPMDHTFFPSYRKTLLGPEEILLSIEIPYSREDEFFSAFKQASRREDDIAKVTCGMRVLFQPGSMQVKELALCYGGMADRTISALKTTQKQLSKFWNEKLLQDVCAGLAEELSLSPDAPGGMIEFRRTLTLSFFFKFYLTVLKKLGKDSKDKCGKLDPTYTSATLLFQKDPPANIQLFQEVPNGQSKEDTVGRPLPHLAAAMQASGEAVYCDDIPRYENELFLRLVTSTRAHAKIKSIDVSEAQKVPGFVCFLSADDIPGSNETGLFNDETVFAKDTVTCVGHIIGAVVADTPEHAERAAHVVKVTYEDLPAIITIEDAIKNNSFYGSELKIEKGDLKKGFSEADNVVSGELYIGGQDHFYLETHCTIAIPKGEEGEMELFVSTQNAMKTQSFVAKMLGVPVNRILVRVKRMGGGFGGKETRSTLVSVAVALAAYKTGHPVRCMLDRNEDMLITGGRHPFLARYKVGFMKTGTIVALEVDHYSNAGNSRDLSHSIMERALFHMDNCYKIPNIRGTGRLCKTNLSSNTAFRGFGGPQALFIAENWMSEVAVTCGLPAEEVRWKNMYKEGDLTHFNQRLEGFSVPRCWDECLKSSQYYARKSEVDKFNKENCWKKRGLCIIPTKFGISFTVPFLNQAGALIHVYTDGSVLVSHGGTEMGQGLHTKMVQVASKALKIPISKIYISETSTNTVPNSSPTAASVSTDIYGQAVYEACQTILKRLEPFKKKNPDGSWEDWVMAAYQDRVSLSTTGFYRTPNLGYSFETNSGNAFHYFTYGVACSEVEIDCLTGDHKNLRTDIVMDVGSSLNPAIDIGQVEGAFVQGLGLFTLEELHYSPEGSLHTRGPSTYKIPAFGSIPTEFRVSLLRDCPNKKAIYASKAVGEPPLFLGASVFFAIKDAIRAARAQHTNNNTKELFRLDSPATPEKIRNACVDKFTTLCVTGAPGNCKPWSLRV

| Structure (SMILES) | IC50 [1] [nM] | also measured |
| --- | --- | --- |
| N#Cc1cc(-c2ncccn2)ccc1OCC1CCCCC1 | 4450 |  |
| N#Cc1cc(-c2nc(N)cc(O)n2)ccc1OCC1CCCCC1 | 275 |  |
| CC(C)COc1ccc(-c2ncccn2)cc1C#N | 1610 |  |
| COc1ccc(COc2ccc(-c3nccc(O)n3)cc2C#N)cc1 | 193 |  |
| CC(C)(C)c1ccc(COc2ccc(-c3nccc(O)n3)cc2C#N)cc1 | 282 |  |
| N#Cc1cc(-c2nccc(N)n2)ccc1OCC1CCCCC1 | 539 |  |
| N#Cc1cc(-c2nccc(O)n2)ccc1O |  | inhibition at 10 µM [2]: < 50% |
| CC(C)COc1ccc(-c2nccc(N)n2)cc1C#N | 262 |  |
| N#Cc1cc(-c2nccc(N)n2)ccc1OCc1ccccc1 | 347 |  |
| N#Cc1cc(-c2ncccn2)ccc1OCc1ccccc1 | 1950 |  |
| N#Cc1cc(-c2nccc(O)n2)ccc1OCc1ccc(Cl)cc1 | 148 |  |
| CC(C)COc1ccc(-c2nc(N)cc(O)n2)cc1C#N | 130 |  |
| N#Cc1cc(-c2nc(N)cc(O)n2)ccc1OCc1ccccc1 | 209 |  |
| COc1ccc(-c2nccc(O)n2)cc1C#N | 179 |  |

More lines, in order of falling IC50 [1], values ahead:

| IC50 [1] [nM] | Structure (SMILES) | also measured |
| --- | --- | --- |
| 95 | N#Cc1cc(-c2nccc(O)n2)ccc1OCc1ccc(Br)cc1 |  |
| 93 | N#Cc1cc(-c2nccc(O)n2)ccc1OCC1CC1 |  |
| 79 | Cc1ccc(COc2ccc(-c3nccc(O)n3)cc2C#N)cc1 |  |
| 77 | N#Cc1cc(-c2nccc(O)n2)ccc1OCc1cccc(F)c1 |  |
| 75 | N#Cc1cc(-c2nccc(O)n2)ccc1OCc1ccc(F)cc1 |  |
| 74 | CC(C)Oc1ccc(-c2nccc(O)n2)cc1C#N |  |
| 73 | N#Cc1cc(-c2nccc(O)n2)ccc1OCC1CCCCC1 |  |
| 69 | CC(C)COc1ccc(-c2nccc(O)n2)cc1C#N |  |
| 66 | N#Cc1cc(-c2nccc(O)n2)ccc1OCc1ccccc1 |  |
| 60 | N#Cc1cc(-c2nccc(O)n2)ccc1OCc1ccccc1F |  |
| 55 | CC(C)=COc1ccc(-c2nccc(O)n2)cc1C#N |  |
| 46 | CC(C)CCOc1ccc(-c2nccc(O)n2)cc1C#N | Activity (Rattus norvegicus [3]): Active; Activity (Rattus norvegicus [4]): inactive; inhibition (INH) [5]: Active; Ki [6]: 18 nM; Activity (Rattus norvegicus [7]): Active; inhibition (INH) [8]: Active |
